# Experimental data from US12622968B2, “Formulation for oral delivery of proteins, peptides and small molecules with poor permeability” (R.P. Scherer Technologies, LLC, priority 2019, dated 2026).
# Like-named read-outs stand apart in the source and are kept apart here.
# Experiment: Single dose oral capsule pharmacokinetics of BHV-3500 in dogs (plasma LC-MS/MS)
# Type: in vivo, beagle dogs
# Conditions: female, beagle, dog, plasma; for Tmax: read-out: Tmax; for concentration at 1 h: 1 h post-dose; for concentration at 1 h / concentration at 2 h / concentration at 4 h: read-out: BHV-3500 Concentration in Dog Plasma; for concentration at 2 h: 2 h post-dose; for Cmax: read-out: Cmax; for concentration at 4 h: 4 h post-dose; for AUC(0-t): read-out: AUC0-4 hr
# Experimental: The pharmacokinetics (PK) of BHV-3500 after a single oral capsule of BHV-3500 in dogs were investigated.
# After each dose, blood samples (approximately 3 mL from the jugular vein) for determination of plasma levels of BHV-3500 were obtained from of each dog at six time points (pre-dose; 15, 30, and 60 minutes and 2 and 4 hours post-dose. EDTA was used as the anticoagulant. Plasma samples were frozen at approximately −70′C until analyzed.
# For the determination of BHV-3500 in plasma, a 50 μL aliquot from each sample was transferred into the appropriate well of a 96-well plate to which 10 μL of 50% acetonitrile (ACN) in water was added, followed by 250 μL of internal standard solution (10 ng/mL BHV-3500-d8 in ACN). After sealing the plate and vortexing for approximately 5 minutes, the plate was centrifuged at 4,000 rpm for 10 minutes at 4±4° C. A portion (100 μL) of the resulting supernatant was transferred to into the appropriate well (containing 300 μL 0.15% formic acid in water) of another 96-well plate. This plate was sealed and its contents mixed prior to instrumental analysis.
# Freshly prepared BHV-3500 standard curves and QC samples were analyzed along with the study samples. Instrument calibrators were prepared by adding 10 μL of a stock BHV-3500 solution to 50 μL of blank dog plasma. Blank dog plasma was sourced from BioIVT (Hicksville, NY) and stored frozen at −20° C. Nominal calibrator concentrations ranged from 2.00 to 200 ng/mL. QC samples were prepared at concentrations of 6.00, 50.0 and 150 ng/mL. Calibrators and QC samples were processed for analysis following the extraction procedure described above.
# Calibrator, QC and study samples were analyzed under LC-S/MS instrument conditions detailed in Table 7.
# Calibration curves were calculated from the linear regression (weighting factor of 1/x2) of the analyte to internal standard peak area ratios versus the analyte concentrations. Concentrations of analyte in the samples were determined using the peak area ratios and the regression parameters of the calibration curves.
# Individual animal plasma BHV-3500 concentration data at scheduled (nominal) sampling times were analyzed using the non-compartmental model f r extravascular administration with Phoenix WinNonlin software (Version 8.1; Certara, Princeton, NJ).
# Elimination rate constant values (λz) were calculated by log-linear regression on data points of the terminal phase (using Phoenix WinNonlin's Best Fit Lambda Z Calculation Method option) when allowed by the data; the plasma elimination half-life (t1/2) was calculated as ln(2)/λz. Area under the plasma concentration-time curve values from time zero to the concentration at the 4 hour time point (AUC0-4 hr) were calculated by the linear-up/log-down trapezoidal rule.
# Nominal dose levels were used for PK analysis. The PK parameters listed below were evaluated (as applicable and when allowed by the data). • Elimination half-life (t1/2) • Time of occurrence of maximum plasma concentration (Tmax) • Maximum plasma concentration (Cmax) • Area under plasma concentration-time curve [0 to the 4 hour time point; AUC0-4hr]
# [1] = po, 50 mg, Group 4, oral capsule, 50 mg BHV-3500, no vehicle, average
# [2] = po, 50 mg, Group 4, oral capsule, 50 mg BHV-3500, no vehicle, individual dogs
# [3] = po, 50 mg, Group 5, oral capsule, 50 mg BHV-3500 in 900 mg vehicle of Formulation 2 (SEDDS excipients), average
# [4] = po, 50 mg, Group 6, oral capsule, 50 mg BHV-3500 in 25 mg DDM, average
# [5] = po, 50 mg, Group 6, oral capsule, 50 mg BHV-3500 in 25 mg DDM, individual dogs
# [6] = Group 2, oral capsule, 20 mg BHV-3500 in 900 mg vehicle of Formulation 2 (SEDDS excipients), individual dogs
smiles,measurement,setting,value
"Cc1cc(C[C@@H](NC(=O)N2CCC(c3cc4ccccc4[nH]c3=O)CC2)C(=O)N2CCN(C3CCN(C)CC3)CC2)cc2cn[nH]c12 [BHV-3500, (R)—N-(3-(7-methyl-1H indazol-5-yl)-1-(4-(1-methylpiperidin-4-yl)piperazin-1-yl)-1-oxopropan-2-yl)-4-(2-oxo-1,2 dihydroquinolin-3-yl)piperidine-1-carboxamide]",Tmax,"po, 20 mg, Group 3, oral capsule, 20 mg BHV-3500 in 25 mg DDM, median",2 h
same,concentration at 1 h,[1],3.35 ng/mL
same,concentration at 1 h,[2],2.25 ng/mL
same,concentration at 2 h,[1],6.18 ng/mL
same,concentration at 2 h,[2],7.57 ng/mL
same,Cmax,[1],6.18 ng/mL
same,Cmax,[2],7.57 ng/mL
same,Tmax,[2],2 h
same,Tmax,"po, 50 mg, Group 4, oral capsule, 50 mg BHV-3500, no vehicle, median",2 h
same,concentration at 1 h,[3],11.5 ng/mL
same,concentration at 2 h,[3],40.6 ng/mL
same,concentration at 4 h,[3],7.97 ng/mL
same,AUC(0-t),[3],70.6 ng·h/mL
same,Cmax,[3],40.6 ng/mL
same,Tmax,"po, 50 mg, Group 5, oral capsule, 50 mg BHV-3500 in 900 mg vehicle of Formulation 2 (SEDDS excipients), individual dogs",2 h
same,Tmax,"po, 50 mg, Group 5, oral capsule, 50 mg BHV-3500 in 900 mg vehicle of Formulation 2 (SEDDS excipients), median",2 h
same,concentration at 1 h,[4],2.42 ng/mL
same,concentration at 1 h,[5],2.42 ng/mL
same,concentration at 2 h,[4],6.05 ng/mL
same,concentration at 2 h,[5],6.05 ng/mL
same,concentration at 4 h,[4],8.67 ng/mL
same,concentration at 4 h,[5],12 ng/mL
same,AUC(0-t),[4],17.3 ng·h/mL
same,Cmax,[4],6.59 ng/mL
same,Tmax,"po, 50 mg, Group 6, oral capsule, 50 mg BHV-3500 in 25 mg DDM, median",4 h
same,concentration at 1 h,[6],2.57 ng/mL
same,concentration at 4 h,[6],3.09 ng/mL
same,concentration at 4 h,"Group 6, oral capsule, 50 mg BHV-3500 in 25 mg DDM, individual dogs",5.34 ng/mL
